{"source": "patent US20250122253A1", "about": "“REGULATING MICROTUBULE DYNAMICS AS A THERAPEUTIC TARGET FOR NERVE REPAIR” (City University of Hong Kong, priority 2023, published 2025)", "key": {"[1]": {"system": "regenerating sensory axons of the injured sciatic nerve", "experiment": "Sciatic nerve pinch test after sciatic nerve crush injury", "assay_type": "in vivo, mice", "details": "3 days post-injury", "description": "Sciatic nerve crush or transection injury was performed in anesthetized adult male C57BL/6 or Fmn2^−/− mice (8-12 weeks old) as previously described. Briefly, the left sciatic nerve was exposed at mid-thigh level. For crush injury, the exposed nerve was crushed with smooth forceps (Dumont #5/45 Forceps, Fine Science Tools) at the sciatic notch for 15 seconds. For sciatic nerve transection, an epineural suture was first made at the level of external rotator muscle, just distal to the sciatic notch. The exposed nerve was then transected using a pair of ophthalmic microscissors just distal to the suture. After injury, the overlying muscle and skin were sutured using a 5-0 suture (Ethilon), and the mice were allowed to recover on a heated pad, and returned to their home cages after recovery. The surgeon was blinded to the genotypes and treatments.\nFor in vivo gene silencing of Fmn2 and/or Hdac5 in DRGs, AAV2/9-Fmn2-shRNA and AAV2/9-Hdac5-shRNA at a titer of 5×10^12 vg/mL (OBIO Technology) were injected into the sciatic nerve directly through a glass micropipette using a microinjector (Harvard Apparatus) two weeks before sciatic nerve crush injury. The mice were then subjected to sciatic nerve crush injury and sciatic nerve pinch test (FIG. 4) and animal behavioural assessment (FIG. 15). The expression of shRNAs was under the control of the U6 promoter, and the expression of the reporter gene eGFP was under the control of the CAG promoter. AAV2/9-scr-shRNA (Packgene) was used as a negative control (see FIG. 22 for the shRNA sequences). On a separate batch of animals, the knockdown efficiency in DRGs was assessed by Western blot analysis in AAV2-Fmn2-shRNA and AAV2-Hdac5-shRNA mice two weeks after the AAV injection (FIGS. S8B and S9). […]\nSciatic nerve pinch test was performed in the ipsilateral side 3 days after sciatic nerve crush injury. […] The distance (in mm) representing the length of axonal regrowth was recorded from the crushed site to the most distal point of sciatic nerve whereas initial withdrawal reflex was observed after pinching. […]"}, "[2]": {"system": "SCG10-positive regenerating axons of sciatic nerve", "experiment": "Quantification of in vivo axon regeneration by SCG10 immunostaining (regeneration index)", "design": "species or system mice", "details": "3 days post-injury", "description": "Mice were perfused transcardially with 4% PFA, and L4/5 DRGs and sciatic nerves were harvested, post-fixed, cryoprotected and frozen in OCT compound (Tissue-Tek). For regenerating axon quantification, 12-μm thick longitudinal serial sections of sciatic nerve were blocked with 0.5% BSA/0.1% Triton X-100 (Sigma-Aldrich), and incubated with anti-SCG10 (a marker for regenerating sensory axons; 1:5,000; Novus Biologicals) primary antibodies. The sections were then incubated with secondary antibody conjugated with Alexa Fluor 555 (1:300; Molecular Probes). A series of z-stack images were taken at 20× magnifications using Nikon AXR confocal microscope equipped with a motorized stage and a resonant scanner, stitched, and maximally projected using NIS-Elements software.\nTo quantify regenerating axons, the SCG10 fluorescence intensity was measured at different distal distances away from the crush site using a line scan macro in ImageJ (NIH). A fluorescence intensity profile of SCG10 immunoreactivity was plotted by averaging the SCG10 intensity from 100 neighbouring pixels and normalized to that measured in the crushed site with maximal SCG10 immunoreactivity. For each mouse, at least 3 non-overlapping sections (at least 36 μm apart) were used and averaged from 12-15 sections per genotype or treatment group (n=4-5 per genotype or treatment group)."}, "[3]": {"system": "gastrocnemius and interosseous muscles", "experiment": "Electromyography (EMG) recording of CMAP amplitude", "assay_type": "in vivo, mice", "description": "Electromyography (EMG) recording was performed on anesthetized mice as described. Briefly, mice were anesthetized with ketamine (100 mg/kg)/xylazine (10 mg/kg), and placed on a heat pad set to 37° C. to avoid hypothermia during the course of EMG recordings. Baseline EMG were recorded before sciatic nerve crush injury using custom-made monopolar Teflon-coated electrodes. Following sciatic nerve crush injury, EMG were recorded on a weekly basis for one month (days 7, 14, 21 and 28). For EMG recordings of proximal gastrocnemius muscle, recording electrode was inserted into the gastrocnemius muscle, and Achilles tendon electrode as a reference. For EMG recordings of distal interosseous muscle, recording electrode and reference electrode was inserted into first and fourth muscle of the same paw, respectively. Sciatic nerve was then stimulated proximally or distally, and both proximal and distal stimulations were used for CMAP of interosseous muscle. Only proximal stimulation was used for CMAP of the gastrocnemius muscle. The mean CMAP amplitude was recorded (Blackrock microsystem, USA) and calculated (Spike 2, UK).\nTo examine the therapeutic potential of metaxalone, adult mice received daily intraperitoneal injection of metaxalone at 10 mg/kg immediately after injury for 21 consecutive days (i.e., metaxalone treatment) or delaying daily intraperitoneal injection of metaxalone at 10 mg/kg to 24 hours post-injury for 20 consecutive days (i.e., delayed metaxalone treatment), and all metaxalone treatments ended on day 21 post-injury. The mice were then subjected to sensory and motor function recovery tests and weekly EMG recordings for 28 days post-injury."}, "[4]": {"details": "cited from earlier work"}}}
{"smiles": "Cc1cc(C)cc(OCC2CNC(=O)O2)c1", "note": "(stereo not shown) [metaxalone]", "values": [{"measurement": "distal sensory axonal regrowth (length)", "setting": "[1]; 0.25 μg/μl to the site of injury immediately after crush, twice per day, 3 consecutive days", "value": "4.82±0.32", "unit": "mm"}, {"measurement": "axonal regrowth (length), delayed treatment", "setting": "[1]; treatment delayed by 24 hours, 0.25 μg/μl to site of injury for 2 consecutive days", "value": "4.50±0.25", "unit": "mm"}, {"measurement": "regeneration index at the region over 4.5 mm, delayed treatment", "setting": "[2]; treatment delayed by 24 hours", "value": 0.40}, {"measurement": "regeneration index at the region over 4.5 mm", "setting": "[2]; treatment immediately after injury", "value": 0.34}, {"measurement": "number of SCG10-positive regenerating axons at 4.5 mm distal to the crush injury site", "setting": "[2]; vs vehicle controls", "value": "significant increase"}, {"measurement": "muscle activities in proximal gastrocnemius vs vehicle controls, delayed treatment", "setting": "[3]; delayed treatment, week 1 to 3 post-injury", "value": "significant improvement"}, {"measurement": "muscle activity in interosseous muscles vs vehicle controls, delayed treatment", "setting": "[3]; delayed treatment, week 2-3 post-injury", "value": "significant increase"}, {"measurement": "muscle activity in most distal interosseous muscles vs vehicle controls", "setting": "[3]; immediate treatment, first 3 weeks post-injury", "value": "reached significance levels"}, {"measurement": "muscle activities in proximal gastrocnemius vs vehicle controls", "setting": "[3]; immediate treatment, week 1 to 3 post-injury", "value": "significant improvement"}, {"measurement": "half-life", "setting": "[4]", "value": 9, "unit": "h"}]}
